Experiments:
GLP-1 receptor = target: T1, GLP-1 receptor (Rattus norvegicus, UniProt P32301); test: in vitro functional assay at the GLP-1 receptor (cyclase, cAMP production in RIN m5f cell membranes); format: biochemical; details: Cyclase GLP-1 Receptor EC50 (nM), Table 1; RIN m5f cell membranes, cAMP production (AlphaScreen)
T1 construct: 96-well assay plate containing RIN m5f cell membranes in an ATP/GTP mixture; endogenous in cells; host or cells: RIN m5f cell membranes
T1 sequence (P32301 22-463): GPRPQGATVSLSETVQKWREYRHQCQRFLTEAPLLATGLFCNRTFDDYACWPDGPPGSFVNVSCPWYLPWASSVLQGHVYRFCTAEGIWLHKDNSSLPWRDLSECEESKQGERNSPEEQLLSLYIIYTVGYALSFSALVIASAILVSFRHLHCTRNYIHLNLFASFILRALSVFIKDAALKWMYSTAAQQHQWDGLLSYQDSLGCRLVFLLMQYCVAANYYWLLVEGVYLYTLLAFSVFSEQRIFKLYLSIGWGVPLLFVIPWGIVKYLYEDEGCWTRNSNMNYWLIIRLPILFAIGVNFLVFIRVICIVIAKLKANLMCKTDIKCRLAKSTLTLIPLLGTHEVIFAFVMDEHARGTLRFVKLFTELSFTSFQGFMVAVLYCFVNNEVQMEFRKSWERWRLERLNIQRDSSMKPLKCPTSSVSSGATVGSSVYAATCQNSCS
Method: The compounds shown in Table 1 below were analyzed in an in vitro functional assay at the GLP-1 receptor. The assay was conducted as follows: Membrane fractions were prepared from confluent cultures of RIN m5f cells. Compounds were serially diluted with an assay buffer, and then added to a 96-well assay plate containing RIN m5f cell membranes in an ATP/GTP mixture. Cyclase activities were determined by measuring the production of cAMP induced through GLP-1 receptor activation. Quantification of cAMP production was achieved through a competitive chemiluminescence assay with a biotinylated-cAMP probe using Perkin Elmer Fusion™-Alpha Microplate Analyzer (AlphaScreen™ technology). The compound EC50 values were obtained through fitting the concentration-response curves to a four-parameter logistic equation within GraphPad PRISM® software.

NIH/Swiss female mice = test: in vivo basal glucose lowering assay; details: subcutaneous injection
Method: Some compounds shown in Table 1 below were analyzed in an in vivo basal glucose lowering assay using the following procedure: A subcutaneous injection of either 200 μl phosphate-buffered saline (PBS) vehicle or test article was given immediately following baseline glucose (t=0) to NIH/Swiss female mice. Tail blood glucose samples were measured at t=2 and 4 hours post dose using a OneTouch® Ultra® (LifeScan, Inc., a Johnson & Johnson Company, Milpitas, Calif.). Body weight was measured daily. Significant test sample effects were identified by ANOVA (p<0.05), followed by Dunnett's post test using GraphPad Prism version 4.00 for Windows (GraphPad Software, San Diego Calif.).

[1] = Table 1, result in words (inactive / similar to GLP-1)
[2] = Table 1, time in hours, tail blood glucose at t=2 and 4 hours post dose

CC[C@H](C)[C@H](NC(=O)[C@H](Cc1ccccc1)NC(=O)[C@H](CC(C)C)NC(=O)[C@H](CCCNC(=N)N)NC(=O)[C@@H](NC(=O)[C@H](C)NC(=O)[C@H](CCC(=O)O)NC(=O)[C@H](CCC(=O)O)NC(=O)[C@H](CCC(=O)O)NC(=O)[C@H](CC(C)C)NC(=O)[C@H](CCC(N)=O)NC(=O)[C@H](CCCCN)NC(=O)[C@H](CO)NC(=O)[C@H](CC(C)C)NC(=O)[C@H](CC(=O)O)NC(=O)[C@H](CO)NC(=O)[C@@H](NC(=O)[C@H](Cc1ccccc1)NC(=O)[C@@H](NC(=O)[C@@H]1CSC2C[C@@H](C(=O)O)[C@H](NC(=O)[C@H](C)NC(=O)[C@@H](N)Cc3c[nH]cn3)C(=O)N21)[C@@H](C)O)[C@@H](C)O)C(C)C)C(=O)N[C@@H](CCC(=O)O)C(=O)N[C@@H](Cc1c[nH]c2ccccc12)C(=O)N[C@@H](CC(C)C)C(=O)N[C@@H](CCCCN)C(=O)N[C@@H](CCC(N)=O)C(=O)NCC(=O)NCC(=O)N1CCC[C@H]1C(=O)N[C@@H](CO)C(=O)N[C@@H](CCCCN)C(=O)N[C@@H](CCC(=O)O)C(=O)N[C@H](C(=O)N[C@H](C(=O)N[C@@H](CO)C(=O)O)[C@@H](C)CC)[C@@H](C)CC (stereo partly drawn) [16C]
EC50 (GLP-1 receptor): 1.1 nM | In Vivo Glucose-Lowering Assay (NIH/Swiss female mice; [1]): inactive

CC[C@H](C)[C@H](NC(=O)[C@H](Cc1ccccc1)NC(=O)[C@H](CC(C)C)NC(=O)[C@H](CCCNC(=N)N)NC(=O)[C@@H](NC(=O)[C@H](C)NC(=O)[C@H](CCC(=O)O)NC(=O)[C@H](CCC(=O)O)NC(=O)[C@H](CCC(=O)O)NC(=O)[C@H](CC(C)C)NC(=O)[C@H](CCC(N)=O)NC(=O)[C@H](CCCCN)NC(=O)[C@H](CO)NC(=O)[C@H](CC(C)C)NC(=O)[C@H](CC(=O)O)NC(=O)[C@H](CO)NC(=O)[C@@H](NC(=O)[C@H](Cc1ccccc1)NC(=O)[C@@H](NC(=O)CNC(=O)[C@@H]1CS(=O)(=O)CN1C(=O)[C@@H](C)NC(=O)[C@@H](N)Cc1c[nH]cn1)[C@@H](C)O)[C@@H](C)O)C(C)C)C(=O)N[C@@H](CCC(=O)O)C(=O)N[C@@H](Cc1ccccc1)C(=O)N[C@@H](CC(C)C)C(=O)N[C@@H](CCCCN)C(=O)N[C@@H](CC(N)=O)C(N)=O [9F]
EC50 (GLP-1 receptor): 0.07 nM | In Vivo Glucose-Lowering Assay (NIH/Swiss female mice; [2]): more than 4 hours

CC[C@H](C)[C@H](NC(=O)[C@H](Cc1ccccc1)NC(=O)[C@H](CC(C)C)NC(=O)[C@H](CCCNC(=N)N)NC(=O)[C@@H](NC(=O)[C@H](C)NC(=O)[C@H](CCC(=O)O)NC(=O)[C@H](CCC(=O)O)NC(=O)[C@H](CCC(=O)O)NC(=O)[C@H](CC(C)C)NC(=O)[C@H](CCC(N)=O)NC(=O)[C@H](CCCCN)NC(=O)[C@H](CO)NC(=O)[C@H](CC(C)C)NC(=O)[C@H](CC(=O)O)NC(=O)[C@H](CO)NC(=O)[C@@H](NC(=O)[C@H](Cc1ccccc1)NC(=O)[C@@H](NC(=O)CNC(=O)[C@@H]1CCCN1C(=O)CNC(=O)[C@@H](N)Cc1c[nH]cn1)[C@@H](C)O)[C@@H](C)O)C(C)C)C(=O)N[C@@H](CCC(=O)O)C(=O)N[C@@H](Cc1ccccc1)C(=O)N[C@@H](CC(C)C)C(=O)N[C@@H](CCCCN)C(=O)N[C@@H](CC(N)=O)C(N)=O [5B]
EC50 (GLP-1 receptor): 0.53 nM | In Vivo Glucose-Lowering Assay (NIH/Swiss female mice; [2]): more than 4 hours

CC[C@H](C)[C@H](NC(=O)[C@H](Cc1ccccc1)NC(=O)[C@H](CC(C)C)NC(=O)[C@H](CCCNC(=N)N)NC(=O)[C@@H](NC(=O)[C@H](C)NC(=O)[C@H](CCC(=O)O)NC(=O)[C@H](CCC(=O)O)NC(=O)[C@H](CCC(=O)O)NC(=O)[C@H](CC(C)C)NC(=O)[C@H](CCC(N)=O)NC(=O)[C@H](CCCCN)NC(=O)[C@H](CO)NC(=O)[C@H](CC(C)C)NC(=O)[C@H](CC(=O)O)NC(=O)[C@H](CO)NC(=O)[C@@H](NC(=O)[C@H](Cc1ccccc1)NC(=O)[C@@H](NC(=O)CN1C[C@H](CC(=O)O)[C@H](NC(=O)[C@H](C)NC(=O)[C@@H](N)Cc2c[nH]cn2)C1=O)[C@@H](C)O)[C@@H](C)O)C(C)C)C(=O)N[C@@H](CCC(=O)O)C(=O)N[C@@H](Cc1c[nH]c2ccccc12)C(=O)N[C@@H](CC(C)C)C(=O)N[C@@H](CCCCN)C(=O)N[C@@H](CCC(N)=O)C(=O)NCC(=O)NCC(=O)N1CCC[C@H]1C(=O)N[C@@H](CO)C(=O)N[C@@H](CCCCN)C(=O)N[C@@H](CCC(=O)O)C(=O)N[C@H](C(=O)N[C@H](C(=O)N[C@@H](CO)C(=O)O)[C@@H](C)CC)[C@@H](C)CC [16D]
EC50 (GLP-1 receptor): 1 nM | In Vivo Glucose-Lowering Assay (NIH/Swiss female mice; [1]): inactive

CC[C@H](C)[C@H](NC(=O)[C@H](Cc1ccccc1)NC(=O)[C@H](CC(C)C)NC(=O)[C@H](CCCNC(=N)N)NC(=O)[C@@H](NC(=O)[C@H](C)NC(=O)[C@H](CCC(=O)O)NC(=O)[C@H](CCC(=O)O)NC(=O)[C@H](CCC(=O)O)NC(=O)[C@H](CC(C)C)NC(=O)[C@H](CCC(N)=O)NC(=O)[C@H](CCCCN)NC(=O)[C@H](CO)NC(=O)[C@H](CC(C)C)NC(=O)[C@H](CC(=O)O)NC(=O)[C@H](CO)NC(=O)[C@@H](NC(=O)[C@H](Cc1ccccc1)NC(=O)[C@@H](NC(=O)[C@@H]1CSC2[C@H](CC(=O)O)[C@H](NC(=O)[C@H](C)NC(=O)[C@@H](N)Cc3c[nH]cn3)C(=O)N21)[C@@H](C)O)[C@@H](C)O)C(C)C)C(=O)N[C@@H](CCC(=O)O)C(=O)N[C@@H](Cc1c[nH]c2ccccc12)C(=O)N[C@@H](CC(C)C)C(=O)N[C@@H](CCCCN)C(=O)N[C@@H](CCC(N)=O)C(=O)NCC(=O)NCC(=O)N1CCC[C@H]1C(=O)N[C@@H](CO)C(=O)N[C@@H](CCCCN)C(=O)N[C@@H](CCC(=O)O)C(=O)N[C@H](C(=O)N[C@H](C(=O)N[C@@H](CO)C(=O)O)[C@@H](C)CC)[C@@H](C)CC (stereo partly drawn) [16A]
EC50 (GLP-1 receptor): 0.52 nM | In Vivo Glucose-Lowering Assay (NIH/Swiss female mice; [1]): inactive

CC[C@H](C)[C@H](NC(=O)[C@H](Cc1ccccc1)NC(=O)[C@H](CC(C)C)NC(=O)[C@H](CCCNC(=N)N)NC(=O)[C@@H](NC(=O)[C@H](C)NC(=O)[C@H](CCC(=O)O)NC(=O)[C@H](CCC(=O)O)NC(=O)[C@H](CCC(=O)O)NC(=O)[C@H](CC(C)C)NC(=O)[C@H](CCC(N)=O)NC(=O)[C@H](CCCCN)NC(=O)[C@H](CO)NC(=O)[C@H](CC(C)C)NC(=O)[C@H](CC(=O)O)NC(=O)[C@H](CO)NC(=O)[C@@H](NC(=O)[C@H](Cc1ccccc1)NC(=O)[C@@H](NC(=O)CNC(=O)[C@@H]1CSCN1C(=O)[C@@H](C)NC(=O)[C@@H](N)Cc1c[nH]cn1)[C@@H](C)O)[C@@H](C)O)C(C)C)C(=O)N[C@@H](CCC(=O)O)C(=O)N[C@@H](Cc1ccccc1)C(=O)N[C@@H](CC(C)C)C(=O)N[C@@H](CCCCN)C(=O)N[C@@H](CC(N)=O)C(N)=O [9D]
EC50 (GLP-1 receptor): 0.01 nM | In Vivo Glucose-Lowering Assay (NIH/Swiss female mice; [2]): more than 4 hours
